Data as given in patent US11414379B2, “SPAK kinase inhibitors as neuroprotective agents” (United States Government as represented by the Department …, priority 2018, dated 2022).
Entries after “also recorded” stand apart in the source; their conditions may differ.

Tests used:
[1] = system: mouse model of ischemic stroke; test: Infarct volume and hemispheric swelling after transient MCAO; format: in vivo; settings: 2.5 mg/kg; 24 hr reperfusion
Source text: Under an operating microscope, the left common carotid artery was exposed through a midline incision. […] The ECA was dissected further distally and permanently ligated. The internal carotid artery (ICA) was isolated and carefully separated from the adjacent vagus nerve. A 12 mm length of silicon-coated nylon filament (size 6-0, native diameter 0.11 mm; diameter with coating 0.21+/−0.02 mm; coating length 5-6 mm; Doccol Corporation, Sharon, Mass.) was introduced into the ECA lumen through a puncture. The silk suture around the ECA stump was tightened around the intraluminal nylon suture to prevent bleeding. The nylon suture was then gently advanced from the ECA to the ICA lumen until mild resistance was felt (˜9 mm). For reperfusion, the suture was withdrawn 50 min after MCAO to restore blood flow. Body temperature was maintained for the duration of the experiment between 36.5° C.-37° C. with a small animal heating pad (Kent Scientific).
At 24 hours reperfusion, mice were anesthetized with 5% isoflurane and then decapitated. Coronal brain tissue slices (2 mm) were stained for 20 minutes at 37° C. with 1% 2,3,5-triphenyltetrazolium chloride monohydrate (TTC; Sigma, St Louis, Mo.) in PBS solution. […] The extent of hemispheric swelling was calculated using the following equation: swelling (% contralateral side)=[(volume of ipsilateral hemisphere−volume of contralateral hemisphere)/volume of contralateral hemisphere]×100 (Bhuiyan et al. (2017) Journal of cerebral blood flow and metabolism: official journal of the International Society of Cerebral Blood Flow and Metabolism 37: 2780-2794).
Referring to FIG. 11A, an experimental design of ischemic stroke study is shown. Vehicle or ZT-1a is administered at 3 hrs and 8 hrs post-MCAO.
Referring to FIG. 11B, representative images and quantification of infarct volume and hemispheric swelling in TTC-stained coronal sections of mouse brains 24 hrs post-MCAO are shown. Vehicle (DMSO, 2 ml/kg) or ZT-1a (2.5 or 5.0 mg/kg) were administered with an initial half dose at 3 hrs and the second half dose at 8 hr reperfusion via intra-peritoneal injection (i.p.). Data are mean±SD, n=6-12 per group (male). * p<0.05.

all four WNK kinases = settings: cited from earlier work
mice = test: Adverse effects of WNK463 administered to mice; format: in vivo, mouse; settings: 2.5 mg/kg dose
[2] = system: normotensive and hypertensive rodent models; settings: oral administration of 1-10 mg/kg; cited from earlier work

CC(C)(C)NC(=O)c1cncn1C1CCN(c2ccc(-c3nnc(C(F)(F)F)o3)cn2)CC1 [WNK463]
effect on infarct volume and hemispheric swelling [1]: reduced neither infarct volume nor hemispheric swelling; also recorded: no neuroprotective effects
inhibition of WNK kinases in vitro (all four WNK kinases): nanomolar range
adverse effects (mice): ataxia and breathing difficulties
effect on blood pressure [2]: reduced blood pressure
